The values below come from patent publication US20160115146A1, “3-CARBOXY SUBSTITUTED COUMARIN DERIVATIVES WITH A POTENTIAL UTILITY FOR THE TREATMENT OF CANCER DISEASES” (UNIVERSITE CATHOLIQUE DE LOUVAIN, priority 2013, published 2016).

Each structure is given as a SMILES string.

Assay [1] has as its system SiHa cells. Briefly: Cytotoxicity/anti-proliferative MTT assay, lactate as energy source. It counts as cell-based. The settings on record: Homo sapiens, DMEM 10 mM L-lactate without glucose, 72 h. The procedure:
SiHa cells (human cervix squamous carcinoma) were routinely cultured in DMEM containing serum and antibiotics as previously described in Sonveaux, P. et al. J. Clin. Invest 2008 118, 3930. Two distinct media were used for the cytotoxicity assay, either DMEM containing 25 mM D-glucose (without pyruvate) or DMEM containing 10 mM L-lactate (without glucose). SiHa cells were seeded in flat-bottom 96-well plates in normal DMEM. After 6 h of incubation, the culture medium was replaced by 100 μl of glucose- or lactate-containing medium and incubated overnight for metabolic adaptation. SiHa cells were treated with the compounds of the invention at a concentration range of 0.01 μM to 100 μM. After a 72 h incubation at 37° C., cell medium was removed and replaced by freshly prepared MTT in PBS (1 mg/ml, 100 μl/well). After a 3 h incubation at 37° C., the plates were centrifuged (1000 g, 10 min at 4° C.) and the supernatant was removed before addition of DMSO (100 μl/well). Plates were kept for 10 min in the dark before reading at the spectrophotometer (Victor X4).
On the technique in general: Tetrazolium assays rely on reduction of a dye to a coloured formazan, in cell work by metabolically active cells.

Assay [2] relates to SiHa cells. Briefly: Lactate consumption assay (inhibition of lactate influx). It counts as cell-based. The settings on record: Homo sapiens, 24 h treatment in lactate-containing medium. The procedure: SiHa cells were seeded on flat-bottom 24-well plates (500 000 cells/well) in normal DMEM. After 6 h of incubation, the culture medium was replaced by 1 ml of DMEM containing 10 mM lactate and incubated overnight for metabolic adaptation. Cells were then treated for 24 h with increasing concentrations of compounds (0.1, 1, 10 and 100 μM) in lactate-containing medium at 37° C. The supernatants were then centrifuged using deproteinizing columns (15 min, 10000 g at 4° C.) and lactate concentration was determined using the enzymatic assay commercialized by CMA Microdialysis AB on a CMA600 analyzer (Aurora Borealis).

For assay [3], the system named is SiHa cells. Briefly: [14C]-lactate uptake assay (inhibition of lactate influx). It counts as cell-based. As to conditions: Homo sapiens, 0.2 h, 2 μM [14C]-lactate for 12 min. On the procedure:
After 6 h of incubation, the culture medium was replaced by 1 ml of DMEM containing 10 mM lactate and incubated overnight for metabolic adaptation.

The subject of assay [4] is SiHa cells xenograft. Briefly: In vivo anti-cancer activity against cervix cancer (SiHa cells xenograft model). As to conditions: nude NMRI mice, 3 mg/kg daily IP, FIG. 1(A). The procedure: 7 weeks old female nude mice (Janvier®, 4-5 mice per group, Balb-c or NMRI) with various human cancer cell lines xenografts were used. SiHa cells were subcutaneously injected (10^6 to 2.10^6 (10^6 or 2.10^6) cells in sterile NaCl 0.9% per mouse) on the left flank of the mice (100 μl/mouse). […] Tumor volume was calculated as following: (length×width^2×π)/6 and expressed in mm^3. Tumor growth delay graphs and statistical analysis (Two-way ANOVA) were performed using GraphPad Prism 4 software.

In a further assay the test system is HCT116 cells xenograft. Put plainly: In vivo anti-cancer activity against colon cancer (HCT116 cells xenograft model). As to conditions: nude NMRI mice, 3 mg/kg daily IP, FIG. 2. On the procedure: (§1) Seven weeks old female nude mice (Janvier®, 4-5 mice per group, NMRI), were used for the experiments. HCT116 cells were subcutaneously injected (2.10^6 cells in sterile NaCl 0.9% per mouse) on the left flank of the mice (100 μl/mouse). The treatment of the mice with compounds of the invention was started when tumor xenografts reached approximately 5 mm of length and width (Caliper® measurement). […] Tumor volume was calculated as the following: (length×width^2×π)/6 and expressed in mm^3. Tumor growth delay graphs and statistical analysis (Two-way ANOVA) were performed using GraphPad Prism 4 software.

The test system of assay [5] is SiHa cells xenograft. Briefly: In vivo anti-cancer activity in combination with cisplatin against cervix cancer (SiHa cells xenograft model). As to conditions: nude NMRI mice, cisplatin 5 mg/kg IP day 0 and 7 plus compound 3 mg/kg daily IP day 1-6 and 8-11, FIG. 3. On the procedure:
as §1, with “SiHa” for “HCT116”

For `COc1ccc(OC)c(COc2ccc3cc(C(=O)O)c(=O)oc3c2)c1` [cpd 22], the CC50 – broadly, the concentration giving 50% cytotoxicity – in the assay with SiHa cells [1] was found to be 702 nM.

The compound `O=C(O)c1cc2ccc(OCc3ccccc3Cl)cc2oc1=O` [cpd 11, 7-((2-chlorobenzyl)oxy)-2-oxo-2H-chromene-3-carboxylic acid] gave a CC50 with SiHa cells [1] of 4230 nM.

As to `O=C(O)c1cc2ccc(OCc3cccc4ccccc34)cc2oc1=O` [cpd 5, 7-(naphthalen-1-ylmethoxy) 2-oxo-2H-chromene-3-carboxylic acid], the CC50 with SiHa cells [1] was found to be 1090 nM.

As for `O=C(O)c1cc2ccc(OCc3ccc(Cl)c(Cl)c3)cc2oc1=O` [cpd 19, 7-((3,4-dichlorobenzyl)oxy)-2-oxo-2H-chromene-3-carboxylic acid], the CC50 in the assay with SiHa cells [1] came to 68400 nM. Compared with the last compound, the CC50 is about 63-fold higher.

Consider `O=C(O)c1cc2ccc(OCCc3ccccc3)cc2oc1=O` [cpd 15, 2-oxo-7-phenethoxy-2H-chromene-3-carboxylic acid], for which the IC50 (in general, the concentration that gives 50% inhibition) in the assay on SiHa cells [2] stood at 2400 nM. Besides, the CC50 in the assay on SiHa cells [1] is 5600 nM.

Compound `CN(C)c1ccc2cc(C(=O)O)c(=O)oc2c1` [cpd 35, 7-(dimethlamino)-2-oxo-2H-chromene-3-carboxylic acid] came in with an IC50 with SiHa cells [2] of 1400 nM. This compound also came in with a 50% cytotoxic concentration (CC50) with SiHa cells [1] of 2900 nM.

In turn, `O=C(O)c1cc2ccc(OCc3cccc(F)c3)cc2oc1=O` [cpd 7, 7-((3-fluorobenzyl)oxy)-2-oxo-2H-chromene-3-carboxylic acid] gave a CC50 in the assay on SiHa cells [1] of 1170 nM.

In the assay on SiHa cells [1], `CC(C)CN(C)c1ccc2cc(C(=O)O)c(=O)oc2c1` [cpd 45, 7-(isobutyl(methyl)amino)-2-oxo-2H-chromene-3-carboxylic acid] yielded a cytotoxic concentration (CC50) of 220 nM.

`CN(Cc1cccs1)c1ccc2cc(C(=O)O)c(=O)oc2c1` [cpd 46, 7-(methyl(thiophen-2-ylmethyl)amino)-2-oxo-2H-chromene-3-carboxylic acid] showed a CC50 with SiHa cells [1] of 210 nM. This CC50 and that of the compound before are within 1.5-fold of each other.

Compound `CCCN(Cc1ccccc1)c1ccc2cc(C(=O)O)c(=O)oc2c1` [cpd 44, 7-(benzyl(propyl)amino)-2-oxo-2H-chromene-3-carboxylic acid] showed a CC50 in the assay with SiHa cells [1] of 11100 nM.

In turn, `O=C(O)c1cc2ccc(N3CCCC3)cc2oc1=O` [cpd 33, 2-oxo-7-(pyrrolidin-1-yl)-2H-chromene-3-carboxylic acid] came in with a CC50 with SiHa cells [1] of 14300 nM. The CC50 values of the last two compounds are within 1.5-fold of each other.

In the assay with SiHa cells [1], `CC(C)CN(Cc1ccccc1)c1ccc2cc(C(=O)O)c(=O)oc2c1` [cpd 43, 7-(benzyl(isobutyl)amino)-2-oxo-2H-chromene-3-carboxylic acid] returned a 50% cytotoxic concentration (CC50) of 16300 nM. This CC50 and that of the compound before are within 1.5-fold of each other.

Consider `O=C(O)c1cc2ccc(OCc3ccccc3)cc2oc1=O` [cpd 9, 7-(benzyloxy)-2-oxo-2H-chromene-3-cartboxylic acid], for which, in the assay with SiHa cells [2], inhibition was half-maximal at 1900 nM (IC50). For the same compound, half-maximal cytotoxicity in the assay with SiHa cells [1] (CC50) was put at 9100 nM.

The compound `CN(CC1CCOCC1)c1ccc2cc(C(=O)O)c(=O)oc2c1` [cpd 50, 7-(methyl((tetrahydro-2H-pyran-4-yl)methyl)amino)-2-oxo-2H-chromene-3-carboxylic acid] showed a CC50 in the assay on SiHa cells [1] of 100 nM.

Turning to `O=C(O)c1cc2ccc(N3CCOCC3)cc2oc1=O` [cpd 34, 7-morpholino-2-oxo-2H-chromene-3-carboxylic acid], half-maximal inhibition in the assay on SiHa cells [2] (IC50) was put at 7900 nM. Also, in the assay with SiHa cells [1], the CC50 was 17500 nM.

With `O=C(Nc1ccc2cc(C(=O)O)c(=O)oc2c1)c1ccccc1` [cpd 116, 7-benzamido-2-oxo-2H-chromene-3-carboxylic acid], the CC50 with SiHa cells [1] was found to be 1500 nM.

For `O=C(O)c1cc2ccc(OC3Cc4ccccc4C3)cc2oc1=O` [cpd 30, 7-((2,3-dihydro-1H-inden-2-yl)oxy)-2-oxo-2H-chromene-3-carboxylic acid], the CC50 in the assay on SiHa cells [1] was 7800 nM.

In the case of `CN(CC1CCCCC1)c1ccc2cc(C(=O)O)c(=O)oc2c1` [cpd 48, 7-((cyclohexylmethyl)(methyl)amino)-2-oxo-2H-chromene-3-carboxylic acid], the CC50 in the assay on SiHa cells [1] was 200 nM.

In the case of `O=C(O)c1cc2ccc(N(Cc3ccccc3)Cc3ccccc3)cc2oc1=O` [cpd 51, 7-(dibenzylamino)-2-oxo-2H-chromene-3-carboxylic acid], the midpoint of cytotoxicity in the assay with SiHa cells [1], the CC50, lay at 12700 nM. Compared with the last compound, the CC50 is about 64-fold higher.

Regarding `COc1cccc(CN(C)c2ccc3cc(C(=O)O)c(=O)oc3c2)c1` [cpd 49, 7-((3-methoxybenzyl)(methyl)amino)-2-oxo-2H-chromene-3-carboxylic acid], the CC50 in the assay on SiHa cells [1] came out at 70 nM.

In the case of `O=C(O)c1cc2cc3c4c(c2oc1=O)CCCN4CCC3` [cpd 37, 11-oxo-2,3,5,6,7,11-hexahydro-1H-pyrano[2,3 - f]pyrido[3,2,1-ij]quinoline-10-carboxylic acid], half-maximal inhibition with SiHa cells [2] (IC50) required 1300 nM. Also, in the assay on SiHa cells [1], the cytotoxic concentration (CC50) amounted to 1200 nM.

In the assay with SiHa cells [1], `CC(C)=CCC/C(C)=C/COc1ccc2cc(C(=O)O)c(=O)oc2c1` [cpd 17, (E)-7-((3,7-dimethylocta-2,6-dien-1-yl)oxy)-2-oxo-2H-chromene-3-carboxylic acid] had a CC50 of 11700 nM.

As for `COc1ccc2cc(C(=O)O)c(=O)oc2c1` [cpd 2, 7-methoxy-2-oxo-2H-chromene-3-carboxylic acid], the IC50 with SiHa cells [2] turned out to be 2300 nM. The compound further came in with a CC50 with SiHa cells [1] of 9800 nM.

`O=C(O)c1cc2ccc(OCn3nnc4ccccc43)cc2oc1=O` [cpd 24, 7-((1H-benzo[d][1,2,3]triazol-1-yl)methoxy)-2-oxo-2H-chromene-3-carboxylic acid] registered a CC50 in the assay on SiHa cells [1] of 1100 nM.

In turn, `O=C(O)c1cc2ccc(OCc3cc(C(F)(F)F)cc(C(F)(F)F)c3)cc2oc1=O` [cpd 3, 7-((3,5-bis(trifluoromethyl)benzyl)oxy)-2-oxo-2H-chromene-3-carboxylic acid] came in with a CC50 with SiHa cells [1] of 600 nM. Against the preceding compound, the CC50 is about 1.8-fold lower.

`CN(Cc1ccccc1)c1ccc2cc(C(=O)O)c(=O)oc2c1` [cpd 31, 7-(benzyl(methyl)amino)-2-oxo-2H-chromene-3-carboxylic acid]: the IC50 in the assay on SiHa cells [3] was found to be 11 nM; in the assay on SiHa cells [2], 59 nM. Moreover, in the assay with SiHa cells [1], it took 220 nM to reach half-maximal cytotoxicity (CC50). Also, the “Tumor growth delay (tumor volume)” value in the assay on SiHa cells xenograft [4] and with HCT116 cells xenograft was “clear tumor growth delay” each time. Moreover, the “Delay in tumor relapse (tumor volume)” value in the assay on SiHa cells xenograft [5] is “clear delay in tumor relapse”.

Compound `CN(Cc1cccc(F)c1)c1ccc2cc(C(=O)O)c(=O)oc2c1` [cpd 47, 7-((3-fluorobenzyl)(methyl)amino)-2-oxo-2H-chromene-3-carboxylic acid] gave a CC50 with SiHa cells [1] of 40 nM. This lies in the double-digit nanomolar range.

In turn, `O=C(O)c1cc2ccc(OCc3ccc(F)cc3)cc2oc1=O` [cpd 26, 7-((4-fluorobenzyl)oxy)-2-oxo-2H-chromene-3-carboxylic acid] registered an IC50 in the assay with SiHa cells [2] of 1250 nM. In the assay with SiHa cells [1], this compound had a CC50 of 3900 nM.

For the compound `O=C(O)c1cc2ccc(NCc3ccccc3)cc2oc1=O` [cpd 39, 7-(benzylamino)-2-oxo-2H-chromene-3-carboxylic acid], the CC50 in the assay on SiHa cells [1] came out at 1790 nM.

Consider `CCN(Cc1ccccc1)c1ccc2cc(C(=O)O)c(=O)oc2c1` [cpd 41, 7-(benzyl(ethyl)amino)-2-oxo-2H-chromene-3-carboxylic acid], for which the CC50 in the assay on SiHa cells [1] amounted to 1900 nM.

`COc1cccc(COc2ccc3cc(C(=O)O)c(=O)oc3c2)c1` [cpd 13] showed a CC50 with SiHa cells [1] of 4600 nM.

Compound `O=C(O)c1cc2ccc(OCc3ccc(C(F)(F)F)cc3)cc2oc1=O` [cpd 28, 2-oxo-7-((4-(trifluoromethyl)benzyl)oxy)-2H-chromene-3-carboxylic acid] gave a CC50 in the assay on SiHa cells [1] of 6860 nM.
